Assay results taken from ChEMBL document CHEMBL4376892, “Identification of Parthenolide Dimers as Activators of Pyruvate Kinase M2 in Xenografts of Glioblastoma Multiforme in Vivo” (J Med Chem, 2020).
Counter-ions that a name gives are not always drawn.

How the values were obtained:
[1] = Antiproliferative activity against human SHG44 cells assessed as reduction in cell viability after 72 hrs by MTT assay; assay type: functional, cell-based; details: SHG-44, 72 h
NIH3T3 = assay: Cytotoxicity against mouse 3T3 cells assessed as reduction in cell viability after 72 hrs by MTT assay; assay type: cell-based; details: NIH3T3, 72 h
SF-126 = assay: Antiproliferative activity against human SF126 cells assessed as reduction in cell viability after 72 hrs by MTT assay; assay type: functional, cell-based; details: SF-126, 72 h
U-87 MG = assay: Antiproliferative activity against human U87 cells assessed as reduction in cell viability after 72 hrs by MTT assay; assay type: functional, cell-based, U-87MG ATCC
Pyruvate kinase PKM [2] = biological target: T1, Pyruvate kinase PKM (Homo sapiens, UniProt P14618); assay: Activation of recombinant human N-terminal 6His-tagged PKM2 expressed in Escherichia coli BL21 cells at 10 uM after 30 mins by fluorescence based analysis relative to control
Target sequence in this assay (P14618 2-531 limits assumed): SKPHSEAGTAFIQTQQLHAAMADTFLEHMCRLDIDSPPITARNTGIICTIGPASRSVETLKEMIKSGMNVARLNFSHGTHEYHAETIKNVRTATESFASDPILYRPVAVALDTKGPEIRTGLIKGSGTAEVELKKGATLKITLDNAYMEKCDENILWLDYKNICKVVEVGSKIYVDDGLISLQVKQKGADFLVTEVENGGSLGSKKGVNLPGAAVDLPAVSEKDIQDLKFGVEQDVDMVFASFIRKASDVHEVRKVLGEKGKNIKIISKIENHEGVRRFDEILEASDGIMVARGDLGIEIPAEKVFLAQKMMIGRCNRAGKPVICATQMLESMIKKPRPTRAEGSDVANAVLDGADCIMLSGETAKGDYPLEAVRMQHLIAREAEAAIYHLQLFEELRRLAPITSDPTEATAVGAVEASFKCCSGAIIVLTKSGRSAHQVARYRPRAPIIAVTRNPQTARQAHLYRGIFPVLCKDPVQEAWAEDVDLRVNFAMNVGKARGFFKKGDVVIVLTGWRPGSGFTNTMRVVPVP

C6 = assay: Antiproliferative activity against rat C6 cells assessed as reduction in cell viability after 72 hrs by MTT assay; assay type: functional, cell-based; details: C6, 72 h
U-118-MG = assay: Antiproliferative activity against human U118MG cells assessed as reduction in cell viability after 72 hrs by MTT assay; assay type: functional, cell-based
U-251 = assay: Antiproliferative activity against human U251 cells assessed as reduction in cell viability after 72 hrs by MTT assay; assay type: functional, cell-based; details: U-251, 72 h
Pyruvate kinase PKM [3] = biological target: T1, Pyruvate kinase PKM; assay: Activation of recombinant human N-terminal 6His-tagged PKM2 expressed in Escherichia coli BL21 cells after 50 mins by fluorescence based analysis
Target sequence in this assay (P14618 whole entry): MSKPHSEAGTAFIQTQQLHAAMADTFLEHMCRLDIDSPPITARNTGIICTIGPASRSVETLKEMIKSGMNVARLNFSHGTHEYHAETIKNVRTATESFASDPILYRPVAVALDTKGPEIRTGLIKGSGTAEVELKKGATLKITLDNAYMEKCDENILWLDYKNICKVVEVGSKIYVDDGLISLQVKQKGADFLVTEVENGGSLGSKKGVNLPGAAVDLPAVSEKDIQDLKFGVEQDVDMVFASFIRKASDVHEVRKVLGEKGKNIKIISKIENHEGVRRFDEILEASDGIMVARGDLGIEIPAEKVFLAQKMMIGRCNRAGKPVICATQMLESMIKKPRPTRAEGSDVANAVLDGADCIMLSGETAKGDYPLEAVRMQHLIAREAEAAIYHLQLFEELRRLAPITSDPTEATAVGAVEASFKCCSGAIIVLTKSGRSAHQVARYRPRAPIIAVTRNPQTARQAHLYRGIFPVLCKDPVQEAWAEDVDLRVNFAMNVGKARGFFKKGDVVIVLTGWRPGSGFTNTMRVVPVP

SMILES | IC50 (U-87 MG) [µM] | fold change (FC) (Pyruvate kinase PKM [2]) | IC50 (U-251) [µM] | AC50 (Pyruvate kinase PKM [3]) [µM] | IC50 [1] [µM] | IC50 (NIH3T3) [µM] | IC50 (SF-126) [µM] | IC50 (C6) [µM] | IC50 (U-118-MG) [µM]
C=C1C(=O)O[C@H]2[C@H]1CC/C(C(=O)OCCOCCOCCOCCOCCOCCOCCOCCOCCOCCOCCOCCOCCOCCOCCOCCOCCOCCOCCOCCOCCOCCOCCOCCOC(=O)/C1=C/CC[C@@]3(C)O[C@H]3[C@H]3OC(=O)C(=C)[C@@H]3CC1)=C\CC[C@@]1(C)O[C@@H]21 | > 50 | > 2 | > 50 |  | > 50 | > 50 | > 50 | > 50 | > 50
C=C1C(=O)O[C@H]2[C@H]1CC/C(C(=O)OCCOCCOCCOCCOCCOCCOCCOCCOCCOCCOC(=O)/C1=C/CC[C@@]3(C)O[C@H]3[C@H]3OC(=O)C(=C)[C@@H]3CC1)=C\CC[C@@]1(C)O[C@@H]21 | > 50 | > 2 | 23.3 |  | 24.5 | > 50 | 23.1 | 14.2 | 18.7
C=C1C(=O)O[C@H]2[C@H]1CC/C(C(=O)OCCOCCOCCOCCOCCOCCOCCOCCOCCOCCOCCOCCOCCOCCOCCOCCOCCOCCOC(=O)/C1=C/CC[C@@]3(C)O[C@H]3[C@H]3OC(=O)C(=C)[C@@H]3CC1)=C\CC[C@@]1(C)O[C@@H]21 | > 50 | > 2 | > 50 |  | > 50 | > 50 | > 50 | > 50 | > 50

Now those with a lower IC50 (U-87 MG), led by results:

IC50 (U-87 MG) [µM] | fold change (FC) (Pyruvate kinase PKM [2]) | IC50 (U-251) [µM] | AC50 (Pyruvate kinase PKM [3]) [µM] | SMILES | IC50 [1] [µM] | IC50 (NIH3T3) [µM] | IC50 (SF-126) [µM] | IC50 (C6) [µM] | IC50 (U-118-MG) [µM]
12.9 | > 2 | > 50 | 0.065 | C=C1C(=O)O[C@H]2[C@H]1CC/C(C(=O)OCCOCCOCCOCCOCCOCCOCCOCCOC(=O)/C1=C/CC[C@@]3(C)O[C@H]3[C@H]3OC(=O)C(=C)[C@@H]3CC1)=C\CC[C@@]1(C)O[C@@H]21 | 25.7 | 22 | > 50 | 4.98 | 11.8
9.13 | > 2 | 16.6 |  | C=C1C(=O)O[C@H]2[C@H]1CC/C(C(=O)OCCOCCOCCOCCOC(=O)/C1=C/CC[C@@]3(C)O[C@H]3[C@H]3OC(=O)C(=C)[C@@H]3CC1)=C\CC[C@@]1(C)O[C@@H]21 | 16.3 | 16.1 | 20.1 | 4.26 | 7.97
0.15 |  | 48 |  | COc1cccc2c1C(=O)c1c(O)c3c(c(O)c1C2=O)C[C@@](O)(C(=O)CO)C[C@@H]3O[C@H]1C[C@H](N)[C@H](O)[C@H](C)O1 [DOXORUBICIN HYDROCHLORIDE] | 1.84 | 0.34 | 0.26 | 0.06 | 0.09
4.38 |  | 12.6 |  | C=C1C(=O)O[C@@H]2C3O[C@]3(C)CC/C=C(\C)CC[C@@H]12 (stereo not given in full) | 9.52 | 7.14 | 17.1 | 5.45 | 5.94
